This note sets out measurements from patent US4328359A, “15-Deoxy-16-substituted-19-chloro-20-nor-prostane derivatives of the E and F series” (American Cyanamid Company, priority 1981, dated 1982).

Each structure is given as a SMILES string.

What all share (format): in vivo
Assay [1] has as its system bronchospasms elicited by intravenous injections of histamine. Kind of assay: Konzett procedure: bronchodilator activity in Guinea-Pigs, histamine-induced bronchospasm. As to conditions: Cavia porcellus, spasmogen histamine, three logarithmic cumulative intravenous doses. The method, then: (§1) The bronchodilator activity for representative compounds of this invention was determined in Guinea-Pigs against bronchospasms elicited by intravenous injections of serotonin, histamine, and acetylcholine, by the Konzett procedure, the details of which are those discussed by J. Lulling, P. Lievens, F. El Sayed and J. Prignot, Arzeimittel-Forschung 18, 995 (1968).
(§2) In the table which follows, bronchodilator activity for representative compounds of the invention against spasmogenic agents serotonin, histamine, and acetylcholine is expressed as an ED50 determined from the results obtained with three logarithmic cumulative intravenous doses.

Assay [2] relates to bronchospasms elicited by intravenous injections of serotonin. In words: Konzett procedure: bronchodilator activity in Guinea-Pigs, serotonin-induced bronchospasm. As to conditions: Cavia porcellus, spasmogen serotonin, three logarithmic cumulative intravenous doses. The method, then:
as §1, §2

Assay [3] concerns bronchospasms elicited by intravenous injections of acetylcholine. Kind of assay: Konzett procedure: bronchodilator activity in Guinea-Pigs, acetylcholine-induced bronchospasm. Conditions: Cavia porcellus, spasmogen acetylcholine, three logarithmic cumulative intravenous doses. How it is done:
as §1, §2

Regarding `O=C(O)CCC/C=C\C[C@H]1C(=O)C[C@@H](O)[C@@H]1/C=C/CC(O)CCCCl` (relative stereo) [dl 11α,16-dehydroxy-9-oxo-19-chloro-20-nor-5-cis,13-trans prostadienoic acid], the median effective dose (ED50) – broadly, the dose at which the effect has come halfway, by size or by number of responders – in assay [1] was found to be 4.4 µg/kg; in assay [2], 4.65 µg/kg; in assay [3], 6.8 µg/kg.
